# Assay results: paper PMC6934184, “Selective DNA-PKcs inhibition extends the therapeutic index of localized radiotherapy and chemotherapy” (The Journal of Clinical Investigation, 2019)
# Biological target: T1, MAPK10 (JNK3) (Homo sapiens, UniProt P53779)
# T1 construct: purchased Thermo Fisher Scientific (Life Technologies) SelectScreen
# Test: SelectScreen Z'LYTE
# Format: biochemical
# Details: ATP 100 µM
# How it was run: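 SelectScreen broad panel; activity (Z'LYTE, Adapta) plus binding formats. ATP: Km app for CSF1R Z'LYTE; 10 for CAMK1 Adapta. Readout = % per kinase.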
# T1 sequence (P53779 whole entry): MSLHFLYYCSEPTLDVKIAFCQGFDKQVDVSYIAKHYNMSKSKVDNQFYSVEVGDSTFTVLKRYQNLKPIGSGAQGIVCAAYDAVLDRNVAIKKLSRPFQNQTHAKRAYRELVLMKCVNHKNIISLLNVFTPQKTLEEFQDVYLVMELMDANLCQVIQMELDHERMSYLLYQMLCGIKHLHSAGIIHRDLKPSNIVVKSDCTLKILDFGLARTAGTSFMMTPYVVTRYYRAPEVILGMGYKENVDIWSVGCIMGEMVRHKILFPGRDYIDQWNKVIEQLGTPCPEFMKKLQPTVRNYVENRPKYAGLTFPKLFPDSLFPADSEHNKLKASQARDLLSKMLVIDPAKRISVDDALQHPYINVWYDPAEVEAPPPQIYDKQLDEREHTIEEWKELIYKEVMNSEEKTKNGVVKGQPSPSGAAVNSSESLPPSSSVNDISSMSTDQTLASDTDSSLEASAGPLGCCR
compound,measurement,value
CN(C(=O)CN1CCOCC1)c1ccc2sc3c(-c4cccc5c(=O)cc(N6CC7CCC(C6)O7)oc45)cccc3c2c1 [NU5455],inhibition at 1 µM,9%
